Where a name gives a salt, the structure may show the parent alone.

Data set [1] has as its system MCP-1. The data set can be described thus: Production of MCP-1 protein by LPS-stimulated MonoMac6 cells (ELISA). Type of data set: cell-based. The following applies: Homo sapiens, MONO-MAC-6, MonoMac6, 1 h preincubation, LPS 100 ng/ml 20 h, ELISA of supernatant; for inhibition at 30 µM: 30 μM (maximum soluble concentration); for inhibition at 75 µM: 75 μM (maximum soluble concentration); for inhibition at 150 µM: 150 μM (maximum soluble concentration). Here is the method:
The capacity of the compounds to inhibit the expression of the protein MCP-1 by lipopolysaccharide (LPS)-stimulated MonoMac6 cells was evaluated. The cells were placed in 96-well plates at a concentration of 50 000 cells/well. The compounds were tested at the maximum soluble concentration given in Table 2 (in the range 30-300 μM) and incubated for 1 hour. The cells were then stimulated with LPS (100 ng/ml) for 20 hours.
The amount of MCP-1 produced was measured in the supernatants, suitably diluted with buffer, by means of an immunoenzymatic test (ELISA) using a commercial kit (ELISA MCP-1/JE, R&D Systems).

The subject of data set [2] is MCP-1. The data set can be described thus: Gene expression of MCP-1 in LPS-stimulated MonoMac6 cells (real-time RT-PCR). The data set is classed as cell-based, human. The following applies: MonoMac6, 1 h preincubation, LPS 100 ng/ml 4 h. Here is the method: The capacity of the compounds to inhibit the expression of MCP-1 by lipopolysaccharide (LPS)-stimulated MonoMac6 cells was evaluated. The cells were placed in 96-well plates at a concentration of 50 000 cells/well. The compounds were tested at the maximum soluble concentration given in Table 1 (in the range 30-300 μM) and incubated for 1 hour. The cells were then stimulated with LPS (100 ng/ml) for 4 hours.
(§1) The total RNA was extracted from the cell pellet using the RNeasy mini kit (Qiagen), reverse-transcribed with the TaqMan Reverse transcription reagents synthesis kit (Applied Biosystems) and the cDNA obtained was used for the real-time PCR reaction. The amplification was obtained in 96-well plates using the ABI Prism 7000 sequence detection system (Applied Biosystems), by applying the following temperature profile: 50° C. for 2 minutes, 95° C. for 10 minutes and 45 cycles at 95° C. for 15 seconds and 60° C. for 1 minute. For the amplification, a set of primers and probe specific for human MCP-1 was used (Applied Biosystems, RefSeq NM_002982.3). A set of primers and probe for β-actin was used in separate wells as an internal control of the samples for the purposes of normalization. Once the reaction had taken place, the fluorescence data were analysed using the ABI Prism 7000 SDS software, by calculating the threshold cycle (Ct) for each sample and subsequently performing a relative quantification via the ΔΔCt method.

For a further data set, the system named is CX3CR1. The data set can be described thus: Gene expression of CX3CR1 in LPS-stimulated MonoMac6 cells (real-time RT-PCR). The data set is classed as cell-based, human. The settings on record: MonoMac6, 1 h preincubation, LPS 100 ng/ml 20 h. As for the experimental part: The capacity of the compounds to inhibit the expression of CX3CR1 by lipopolysaccharide (LPS)-stimulated MonoMac6 cells was evaluated. The cells were placed in 96-well plates at a concentration of 50 000 cells/well. The compounds were tested at the maximum soluble concentration given in Table 3 (in the range 30-300 μM) and incubated for 1 hour. The cells were then stimulated with LPS (100 ng/ml) for 20 hours.
as §1, with “CX3CR1” for “MCP-1”, “NM_001337.3).” for “NM_002982.3).”

The test system of a further data set is p40. The data set can be described thus: Gene expression of p40 in LPS-stimulated MonoMac6 cells (real-time RT-PCR). The settings on record: MonoMac6, 1 h preincubation, LPS 100 ng/ml 4 h. The data set is classed as cell-based, human. Here is the method:
The capacity of the compounds to inhibit the expression of p40 by lipopolysaccharide (LPS)-stimulated MonoMac6 cells was evaluated. The cells were placed in 96-well plates at a concentration of 50 000 cells/well. The compounds were tested at the maximum soluble concentration given in Table 4 (in the range 30-300 μM) and incubated for 1 hour. The cells were then stimulated with LPS (100 ng/ml) for 4 hours.
as §1, with “p40” for “MCP-1”, “NM_002187.2).” for “NM_002982.3).”
In general terms: Quantitative PCR measures a nucleic acid by following its amplification.

The mark [3] stands for this setting: 300 μM (maximum soluble concentration).
The mark [4] stands for this setting: 150 μM (maximum soluble concentration).
[5] abbreviates: 30 μM (maximum soluble concentration).

Usually inhibition stands for the percentage by which the read-out fell short of the control. Read a low inhibition as a weak effect. As for `OCc1nn(Cc2ccc(Cl)cc2Cl)c2ccccc12` [Compound 6, [1-(2,4-dichlorobenzyl)-1H-indazol-3-yl]methanol], the inhibition at 30 µM with MCP-1 [1] was found to be 54%.

`OCc1nn(Cc2ccc(Cl)cc2)c2ccccc12` [Compound 4, [1-(4-chlorobenzyl)-1H-indazol-3-yl]methanol]: testing at 75 µM in the data set with MCP-1 [1] gave an inhibition of 85%.

As for `Cc1cc(Cl)ccc1Cn1nc(CO)c2ccccc21` [Compound 8, [1-(4-chloro-2-methylbenzyl)-1H-indazol-3-yl]methanol], the inhibition at 30 µM in the data set on MCP-1 [1] was found to be 75%.

As usually defined, the melting point is the temperature of the solid-liquid transition. The compound `OCCOCc1nn(Cc2ccccc2)c2ccccc12` [Compound 13, 2-[(1-benzyl-1H-indazol-3-yl)methoxy]ethanol] registered a melting point of 67 to 69 °C. Also, the “% inhibition of MCP-1 expression (mRNA)” value in the data set on MCP-1 [2] (setting [3]) is reported as 55%. The same compound came in with an inhibition at 300 µM in the data set on MCP-1 [1] (setting [3]) of 78%. The “% inhibition of CX3CR1 expression (mRNA)” value in the data set on CX3CR1 (setting [3]) amounted to 90%.

The compound `COc1ccc(Cn2nc(CO)c3ccccc32)cc1` [Compound 2, [1-(4-methoxybenzyl)-1H-indazol-3-yl]methanol] came in with a melting point of 95 to 97 °C.

As to `CC(C)(CN1CCOCC1)OCc1nn(Cc2ccccc2)c2ccccc12.O=C(O)/C=C\C(=O)O` [Compound 18, 1-benzyl-3-[(1,1-dimethyl-2-morpholin-4-ylethoxy)methyl]-1H-indazole maleate], the melting point lay within 87 to 88 °C. This compound also came in with an inhibition at 75 µM in the data set on MCP-1 [1] of 85%. The “% inhibition of p40 expression (mRNA)” value with p40 (75 μM (maximum soluble concentration)) was determined as 39%.

In the case of `CN(C)CCOCc1nn(Cc2ccccc2)c2ccccc12.Cl` [Compound 14, 2-[(1-benzyl-1H-indazol-3-yl)methoxy]-N,N-dimethylethanamine hydrochloride], the “% inhibition of MCP-1 expression (mRNA)” value in the data set with MCP-1 [2] (setting [4]) is listed as 52%. Besides, in the data set with MCP-1 [1], the inhibition at 150 µM worked out at 64%. Also, the “% inhibition of CX3CR1 expression (mRNA)” value in the data set on CX3CR1 (setting [4]) is on record as 96%.

In the case of `OCc1nn(Cc2ccccc2)c2ccccc12` [Compound 1, 1-benzyl-3-hydroxymethyl-indazole], the “% inhibition of MCP-1 expression (mRNA)” value with MCP-1 [2] (setting [4]) is 30%. In addition, the inhibition at 150 µM in the data set on MCP-1 [1] amounted to 54%. In addition, in the data set on CX3CR1 (setting [4]), the “% inhibition of CX3CR1 expression (mRNA)” value is listed as 72%. The “% inhibition of p40 expression (mRNA)” value in the data set on p40 (setting [4]) is 32%.

With `Cc1cc(Cl)ccc1Cn1nc(C(C)O)c2ccccc21` (centres unmarked) [Compound 12, 1-[1-(4-chloro-2-methylbenzyl)-1H-indazol-3-yl]ethanol], in the data set with MCP-1 [1], the inhibition at 30 µM came to 76%.

The compound `CN(C)CCCOCc1nn(Cc2ccccc2)c2ccccc12` [Compound 15, 3-[(1-benzyl-1H-indazol-3-yl)methoxy]-N,N-dimethylpropan-1-amine hydrochloride] showed an inhibition at 75 µM in the data set with MCP-1 [1] of 44%.

`Cc1cc(Cl)ccc1Cn1nc(C(C)(C)O)c2ccccc21` [Compound 10, 2-[1-(4-chloro-2-methylbenzyl)-1H-indazol-3-yl]propan-2-ol] gave a melting point of 72 to 74 °C. In the data set with MCP-1 [2] (setting [5]), the “% inhibition of MCP-1 expression (mRNA)” value is listed as 72%. The same compound yielded an inhibition at 30 µM in the data set on MCP-1 [1] of 81%. In addition, the “% inhibition of CX3CR1 expression (mRNA)” value in the data set on CX3CR1 (setting [5]) stood at 89%. In the data set with p40 (setting [5]), the “% inhibition of p40 expression (mRNA)” value stood at 65%.

Compound `CC(C)(CO)OCc1nn(Cc2ccccc2)c2ccccc12` [Compound 17, 2-[(1-benzyl-1H-indazol-3-yl)methoxy]-2-methylpropan-1-ol] displayed a melting point of 52 to 53 °C. Also, the “% inhibition of MCP-1 expression (mRNA)” value with MCP-1 [2] (setting [4]) is recorded as 53%. This compound gave an inhibition at 150 µM in the data set with MCP-1 [1] of 82%. The “% inhibition of CX3CR1 expression (mRNA)” value in the data set with CX3CR1 (setting [4]) worked out at 88%. In addition, the “% inhibition of p40 expression (mRNA)” value in the data set on p40 (setting [4]) is given as 37%.

`COc1ccc2c(c1)c(CO)nn2Cc1ccccc1` [Compound 9, (1-benzyl-5-methoxy-1H-indazol-3-yl)methanol] registered a melting point of 97 to 98 °C.

Compound `CC(C)(O)c1nn(Cc2ccc(Cl)cc2Cl)c2ccccc12` [Compound 11, 2-[1-(2,4-dichlorobenzyl)-1H-indazol-3-yl]propan-2-ol] gave an inhibition at 30 µM in the data set on MCP-1 [1] of 88%.

The values are drawn from patent US9255073B2, “1-benzyl-3-hydroxymethylindazole derivatives and use thereof in the treatment of diseases based on the expression of MCP-1, CX3CR1 and p40” (AZIENDE CHIM. RIUN. ANG. FRANC. A.C.R.A.F. S.p.A., priority 2008, dated 2016).
